# Source: patent publication US11692194B2, “Modulating expression of polypeptides via new gene switch expression systems” (Precigen, Inc., priority 2017, dated 2023)
# Tested on: RTS-IL-12 in EGFRvIII-CAR-T cells
# Test: IL-12 induction in EGFRvIII-CAR/RTS-IL-12 T cells, ELISA of culture supernatant
# Format: cell-based
# Description: Sleeping Beauty transposons were designed as depicted in FIG. 22 to stably express EGFRvIII-specific CAR, a cell tag and RTS-IL-12. Transposon plasmids were electroporated in several donor T cells as previously described. EGFRvIII-CAR-T cells were selectively expanded ex vivo by successive rounds of stimulations every 7-10 days for up to 4 cycles with either γ-irradiated or mitomycin C treated AaPC that served as “feeder cells” at 1:1 ratio in media supplemented with IL-2 and IL-21. The AaPC cells used were K562-AaPC expressing EGFRvIII antigen. FIG. 26 depicts CAR expression in T cells from multiple donors as the CAR+ T cells are selectively expanded ex vivo.
# To assay IL-12 induction in EGFRvIII-CAR-T cells, Pan T-cells at 24 h post nucleofection were treated with DMSO (control) or veledemix in the presence of AaPCs in media containing IL-21. After 48 hours post-nucleofection, culture supernatants were analyzed for IL-12 levels by ELISA.
# Furthermore, the ability of RTS-IL-12/CAR-T cells to produce inducible IL-12 was assessed in presence or absence of antigen specific stimulation. EGFRvIII-CAR/RTS-IL-12 T cells were expanded ex vivo by three successive rounds of stimulation with EGFRvIII^+ AaPCs. […]
structure (smiles),measurement,setting,value
"CCC[C@@H](N(NC(=O)c1cccc(OC)c1CC)C(=O)c1cc(C)cc(C)c1)C(C)(C)C [veledimex, N-[(1R)-1-(1,1-dimethylethyl)butyl]-N′-(2-ethyl-3-methoxybenzoyl)-3,5-dimethylbenzohydrazide]",veledimex induced IL-12 with versus without EGFRvIII^+ AaPCs,"100 nM veledimex, 48 hours, after three rounds of stimulation",greatly enhanced in presence of EGFRvIII antigen specific stimulation
same,IL-12 expression in culture supernatant,"T cells co-expressing CAR and RTS-IL-12, treated 24 h post nucleofection with AaPCs and IL-21",induced IL-12 expression
